# Results published in patent publication US7169787B2, “7-azaindoles, use thereof as phosphodiesterase 4 inhibitors and method for producing the same” (Elbion AG, priority 2000, dated 2007).
# Legend:
# PDE 4 = assay: Inhibition of phosphodiesterase 4 (enzyme preparation from human PMNL, [3H]-cAMP); format: biochemical; details: PDE 4 from human PMNL cytosol, 0.5 μM [3H]-cAMP
# Protocol: The PDE 4 activity is determined in enzyme preparations from human polymorphonuclear […] (PMNL) and the PDE 2, 3 and 5 activity is determined with PDE from human thrombocytes. Human blood was anti-coagulated with citrate. By centrifuging at 700×g for 20 minutes at room temperature, the thrombocyte-rich plasma in the supernatant is separated from the erythrocytes and leukocytes. The thrombocytes are lysed by ultrasound and used in the PDE 3 and PDE 5 assays. For the determination of the PDE 2 activity, the cytosolic thrombocyte fraction is purified on an anionic exchange column by means of NaCl gradients and the PDE 2 peak is obtained for the assay. The PMNLs for the PDE 4 determination are isolated by a subsequent dextran sedimentation, followed by a gradient centrifugation with Ficoll-Paque. After the cells have been washed twice, the erythrocytes, still contained, are lysed within 6 minutes at 4° C. by the addition of 10 mL of hypotonic buffer (155 mM of NH4Cl, 10 mM of NaHCO3, 0.1 mM of EDTA, pH=7.4). The PMNLs, which are still intact, are washed twice with PBS and lysed with ultrasound. The supernatant of a one-hour centrifugation at 4° C. at 48,000×g contains the cytosolic fraction of the PDE 4 and is used for the PDE 4 measurements.
# The phosphodiesterase activity is determined using the method described by Thompson et al. with some modifications (Thompson, W. J. and M. M. Appleman, Assay of cyclic nucleotide phosphodiesterase and resolution of multiple molecular forms of the enzyme, Adv. Cycl. Nucl. Res. 1979, 10, 69–92).
# The reaction mixtures contain 50 mM of tris hydrochloride (pH 7.4), 5 mM of magnesium chloride, the inhibitors in various concentrations, the corresponding enzyme preparation as well as the further components necessary for determining the individual isoenzymes (see below). The reaction is started by the addition of the substrate, 0.5 μM of [^3H]-cAMP or [^3H]-cGMP (approximately 6000 CPM per test). The final volume is […]. Test substances are mixed as stock solutions in DMSO. The DMSO concentration in the reaction mixture is 1% v/v. The PDE activity is not affected by this concentration of DMSO. After the reaction is started by the addition of substrate, samples are incubated for 30 minutes at 37° C. The reaction is stopped by heating the test tubes for 2 minutes at 110° C. The samples remain for a further 10 minutes in ice. The addition of 30 μL of 5′-nucleotidase (1 mg/mL, from a poisonous snake suspension from Crotalus adamanteus) is followed by a 10-minutes incubation at 37° C. The samples are stopped on ice, in each case 400 μL of a mixture of Dowex, water and ethanol (1+1+1) is added, mixed well and incubated once again for 15 minutes on ice. The reaction vessels are centrifuged for 20 minutes at 3000×g. Aliquots of the supernatant (200 μL) are transferred directly to scintillation vessels. After the addition of 3 mL of scintillator, the samples are measured in the beta counter.
# [^3H]-cAMP is used as substrate for the determination of the PDE 4, 3 and 2 activity and [^3H]-cGMP is used as substrate for the determination of the PDE 5 activity. The enzyme activities, which are nonspecific in each case, are determined in the presence of 100 μM of Rolipram for the determination of PDE 4 and in the presence of 100 μM of IBMX for the determination of the PDE 3 and 5 and subtracted from the test values. The incubation formulations of the PDE 3 assays contained 10 μM of Rolipram, in order to inhibit possible contaminations by PDE 4. The PDE 2 is tested with an SPA assay of the Amersham Company. The assay is carried out in the presence of the activator of the PDE 2 (5 μM of cGMP).
# Lewis Rats = assay: Inhibition of the lipopolysaccharide (LPS)-induced lung neutrophilia; format: in vivo, rat; details: 1 mg/kg p.o., 2 h before LPS provocation; BAL 6 h after provocation
# Protocol: The inhibition of pulmonary neutrophil infiltration by the inventive substances is tested on male Lewis Rats (250–350 g). On the day of the experiments, the animals are placed individually in open 1 L Plexiglas boxes, which are connected to a head-nose exposure device. The animals are exposed to an aerosol of a lipopolysaccharide suspension (100 μg LPS/mL of 0.1% hydroxylamine solution) in PBS (LPS provocation). The LPS/hydroxylamine aerosol is nebulized by a nebulizer (Bird Micronebulizer, Palm Springs Calif., USA), which is operated with compressed air (0.2 MPa). The exposure time is 40 minutes, normal controls being nebulized also for 40 minutes with an aerosol of 0.1% hydroxylamine solution in PBS.
# Six hours after the LPS provocation, there is a maximum, massive migration of neutrophil granulocytes into the lungs of the animals. At this time, the animals are anesthetized with an excess of ethyl urethane (1.5 g/kg of body weight i.p.) and a bronchoalveolar lavage (BAL) with 3×4 mL of Hank's balance solution is carried out. The total cell count and the number of neutrophil granulocytes of the pooled BAL liquid are subsequently determined with an automatic cell differentiation instrument (Bayer Diagnostics Technicon HIE). For each animal, the neutrophiles (NEUTRO) in the BAL are calculated in millions/animal: NEUTRO/μl×BAL recovery (mL)=NEUTRO/animal.
# For each test, 2 control groups were also run (nebulization with 0.1% hydroxylamine solution in PBS and nebulization with 100 μg LPS/mL of 0.1% hydroxylamine solution in PBS).
# The percentage inhibition of the neutrophilia of the experimental group, treated with substance, was calculated according to the following formula: {((LPSC−SC)−(LPSD−SC))/(LPSC−SC)}×100%=% inhibition SC=vehicle-treated control group challenged with 0.1% hydroxylamine solution; LPSC=vehicle-treated control group challenged with LPS (100 μg/mL 0.1% hydroxylamine solution); LPSD=substance-treated experimental group challenged with LPS (100 μg/mL 0.1% hydroxylamine solution) […]
structure (smiles),measurement,setting,value
Cc1ccc(Cn2cc(C(=O)C(=O)Nc3c(Cl)cncc3Cl)c3cccnc32)cc1 [Example 22],IC50,PDE 4,2 nM
same,Inhibition of neutrophilia (table titled Inhibition of Eosinophilia),Lewis Rats,64%
same,melting point,,176 to 178 °C
